Experimental data taken from publication PMC5908784, “Extracellular loops 2 and 3 of the calcitonin receptor selectively modify agonist binding and efficacy” (Biochemical Pharmacology, 2018).
Substitutions are numbered along the chain they refer to. Where a SMILES comes first, the peptide text is derived from it. Bridges are numbered along the chain shown (N, C = ends).

What was measured:
Test in all cases: ERK1/2 phosphorylation
Assay type in all cases: cell-based
Details in all cases: CV1-FlpIn cells, mean ± S.E.M.; for Emax: pERK maximal response; for EC50: pERK, three-parameter logistic fit
[1] = biological target: T1, hCTR G369A (Homo sapiens, UniProt P30988, G369A)
T1 construct: c-Myc (N); expressed in transfected cells
T1 sequence (P30988 25-474 G369A): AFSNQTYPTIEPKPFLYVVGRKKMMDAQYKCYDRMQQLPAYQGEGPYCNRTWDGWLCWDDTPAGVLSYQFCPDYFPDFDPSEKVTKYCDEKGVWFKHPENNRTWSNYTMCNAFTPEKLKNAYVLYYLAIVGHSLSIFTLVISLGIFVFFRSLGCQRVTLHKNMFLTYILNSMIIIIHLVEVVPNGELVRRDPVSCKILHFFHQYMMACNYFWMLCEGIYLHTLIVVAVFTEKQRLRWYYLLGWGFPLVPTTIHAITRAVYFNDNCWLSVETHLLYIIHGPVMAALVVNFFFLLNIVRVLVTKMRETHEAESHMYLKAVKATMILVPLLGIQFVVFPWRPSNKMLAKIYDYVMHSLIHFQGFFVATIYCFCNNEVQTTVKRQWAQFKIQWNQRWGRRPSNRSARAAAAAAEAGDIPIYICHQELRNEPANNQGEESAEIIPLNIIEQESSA
Procedure: (§1) Cells (2.5 × 10^4 cells/well) were seeded into 96-well culture plates and incubated overnight. […] Data were normalized to the maximal response elicited by 10% FBS determined at 6 min.
(§2) Data were corrected for radioligand occupancy using the Cheng-Prusoff equation in Prism; as such data are reported as pKi. Emax and EC50 were estimated from concentration-response curves using with a 3-parameter logistic equation in Prism (v7). These values are a composite of functional affinity, efficacy and stimulus response coupling. […] Significance was accepted at P < 0.05.

[2] = biological target: T2, hCTR M376A (Homo sapiens, UniProt P30988, M376A)
T2 construct: c-Myc (N); expressed in transfected cells
T2 sequence (P30988 25-474 M376A): T1 sequence (P30988 25-474 G369A) with A345G, M352A
Procedure: as §1, §2

[3] = biological target: T3, hCTR T295A (Homo sapiens, UniProt P30988, T295A)
T3 construct: c-Myc (N); expressed in transfected cells
T3 sequence (P30988 25-474 T295A): T1 sequence (P30988 25-474 G369A) with T271A, A345G
Procedure: as §1, §2

[4] = biological target: T4, hCTR N288A (Homo sapiens, UniProt P30988, N288A)
T4 construct: expressed in transfected cells
T4 sequence (P30988 25-474 N288A): T1 sequence (P30988 25-474 G369A) with N264A, A345G
Procedure: as §1, §2

[5] = biological target: T5, hCTR V358A (Homo sapiens, UniProt P30988, V358A)
T5 construct: c-Myc (N); expressed in transfected cells
T5 sequence (P30988 25-474 V358A): T1 sequence (P30988 25-474 G369A) with V334A, A345G
Procedure: as §1, §2

Compound	Emax [1] [%]	EC50 [1] [nM]	Emax [2] [%]	EC50 [2] [nM]	Emax [3] [%]	EC50 [3] [nM]	Emax [4] [%]	EC50 [4] [nM]	Emax [5] [%]	EC50 [5] [nM]
CC(C)C[C@H](NC(=O)CNC(=O)[C@H](C)NC(=O)[C@H](CC(C)C)NC(=O)[C@H](CCCNC(=N)N)NC(=O)[C@H](Cc1cnc[nH]1)NC(=O)[C@@H](NC(=O)[C@@H](NC(=O)[C@@H]1CSSC[C@H](NC(=O)[C@H](C)N)C(=O)N[C@@H](CC(=O)O)C(=O)N[C@@H]([C@@H](C)O)C(=O)N[C@@H](C)C(=O)N[C@@H]([C@@H](C)O)C(=O)N1)C(C)C)[C@@H](C)O)C(=O)N[C@@H](CC(C)C)C(=O)N[C@@H](CO)C(=O)N[C@@H](CCCNC(=N)N)C(=O)N[C@@H](CO)C(=O)NCC(=O)NCC(=O)N[C@H](C(=O)N[C@H](C(=O)N[C@@H](CCCCN)C(=O)N[C@@H](CC(N)=O)C(=O)N[C@@H](CC(N)=O)C(=O)N[C@@H](Cc1ccccc1)C(=O)N[C@H](C(=O)N1CCC[C@H]1C(=O)N[C@H](C(=O)N[C@@H](CC(N)=O)C(=O)N[C@H](C(=O)NCC(=O)N[C@@H](CO)C(=O)N[C@@H](CCCCN)C(=O)N[C@@H](C)C(=O)N[C@@H](Cc1ccccc1)C(N)=O)C(C)C)[C@@H](C)O)C(C)C)C(C)C)C(C)C [hαCGRP]	87 ± 14	81.3	36 ± 8	18.2	22 ± 4	20.9	110 ± 10	97.7	39 ± 8	32.4
CC[C@H](C)[C@H](NC(=O)[C@H](C)NC(=O)[C@@H](NC(=O)[C@H](CCC(N)=O)NC(=O)[C@@H]1CCCN1C(=O)[C@H](Cc1ccccc1)NC(=O)[C@@H](NC(=O)[C@H](Cc1c[nH]cn1)NC(=O)[C@H](Cc1ccccc1)NC(=O)[C@H](CCCCN)NC(=O)[C@H](CC(N)=O)NC(=O)[C@H](Cc1ccccc1)NC(=O)[C@H](CC(=O)O)NC(=O)[C@H](CCC(N)=O)NC(=O)[C@@H](NC(=O)[C@H](Cc1ccc(O)cc1)NC(=O)[C@@H](NC(=O)CNC(=O)[C@H](CC(C)C)NC(=O)[C@H](CCSC)NC(=O)[C@@H]1CSSC[C@H](N)C(=O)NCC(=O)N[C@@H](CC(N)=O)C(=O)N[C@@H](CC(C)C)C(=O)N[C@@H](CO)C(=O)N[C@@H]([C@@H](C)O)C(=O)N1)[C@@H](C)O)[C@@H](C)O)[C@@H](C)O)[C@@H](C)O)C(=O)NCC(=O)N[C@H](C(=O)NCC(=O)N[C@@H](C)C(=O)N1CCC[C@H]1C(N)=O)C(C)C [hCT]	141 ± 9	–	52 ± 4	–	48 ± 6	–	137 ± 8	–	160 ± 10	–
CC(C)C[C@H](NC(=O)[C@H](CC(N)=O)NC(=O)[C@H](CC(N)=O)NC(=O)[C@H](CO)NC(=O)[C@H](CO)NC(=O)[C@H](CCCNC(=N)N)NC(=O)[C@@H](NC(=O)[C@H](CC(C)C)NC(=O)[C@H](Cc1ccccc1)NC(=O)[C@H](CC(N)=O)NC(=O)[C@H](C)NC(=O)[C@H](CC(C)C)NC(=O)[C@H](CCCNC(=N)N)NC(=O)[C@H](CCC(N)=O)NC(=O)[C@@H](NC(=O)[C@H](C)NC(=O)[C@@H]1CSSC[C@H](NC(=O)[C@@H](N)CCCCN)C(=O)N[C@@H](CC(N)=O)C(=O)N[C@@H]([C@@H](C)O)C(=O)N[C@@H](C)C(=O)N[C@@H]([C@@H](C)O)C(=O)N1)[C@@H](C)O)C(C)C)C(=O)NCC(=O)N1CCC[C@H]1C(=O)N[C@H](C(=O)N[C@@H](CC(C)C)C(=O)N1CCC[C@H]1C(=O)N1CCC[C@H]1C(=O)N[C@H](C(=O)N[C@@H](CC(N)=O)C(=O)N[C@H](C(=O)NCC(=O)N[C@@H](CO)C(=O)N[C@@H](CC(N)=O)C(=O)N[C@H](C(=O)N[C@@H](Cc1ccc(O)cc1)C(N)=O)[C@@H](C)O)C(C)C)[C@@H](C)O)C(C)C [rAmy]	63 ± 8	–	43 ± 7	–	28 ± 5	–	79 ± 7	–	59 ± 10	–
CSCC[C@H](NC(=O)CNC(=O)[C@H](CO)NC(=O)[C@H](Cc1ccccc1)NC(=O)[C@H](CCCNC(=N)N)NC(=O)[C@H](Cc1c[nH]cn1)NC(=O)[C@H](Cc1ccccc1)NC(=O)[C@H](CC(N)=O)NC(=O)[C@H](CC(N)=O)NC(=O)[C@H](CC(C)C)NC(=O)[C@H](CC(N)=O)NC(=O)[C@H](CCCNC(=N)N)NC(=O)[C@H](Cc1c[nH]c2ccccc12)NC(=O)[C@H](Cc1ccc(O)cc1)NC(=O)[C@H](C)NC(=O)[C@H](CO)NC(=O)[C@H](CC(C)C)NC(=O)[C@@H](NC(=O)[C@@H]1CSSC[C@H](N)C(=O)N[C@@H](CO)C(=O)N[C@@H](CC(N)=O)C(=O)N[C@@H](CC(C)C)C(=O)N[C@@H](CO)C(=O)N[C@@H]([C@@H](C)O)C(=O)N1)C(C)C)C(=O)NCC(=O)N[C@@H](Cc1ccccc1)C(=O)NCC(=O)N1CCC[C@H]1C(=O)N[C@@H](CCC(=O)O)C(=O)N[C@H](C(=O)N1CCC[C@H]1C(N)=O)[C@@H](C)O [pCT] (H-CSNLSTCVLSAYWRNLNNFHRFSGMGFGPETP-NH2; disulfide 1-7)	128 ± 8	5.25	47 ± 4	1.95	50 ± 5	0.759	135 ± 11	2.95	101 ± 8	2.24
CC(C)C[C@H](NC(=O)[C@H](CCCCN)NC(=O)CNC(=O)[C@H](CC(C)C)NC(=O)[C@@H](NC(=O)[C@@H]1CSSC[C@H](N)C(=O)N[C@@H](CO)C(=O)N[C@@H](CC(N)=O)C(=O)N[C@@H](CC(C)C)C(=O)N[C@@H](CO)C(=O)N[C@@H]([C@@H](C)O)C(=O)N1)C(C)C)C(=O)N[C@@H](CO)C(=O)N[C@@H](CCC(N)=O)C(=O)N[C@@H](CCC(=O)O)C(=O)N[C@@H](CC(C)C)C(=O)N[C@@H](Cc1c[nH]cn1)C(=O)N[C@@H](CCCCN)C(=O)N[C@@H](CC(C)C)C(=O)N[C@@H](CCC(N)=O)C(=O)N[C@H](C(=O)N[C@@H](Cc1ccc(O)cc1)C(=O)N1CCC[C@H]1C(=O)N[C@@H](CCCNC(=N)N)C(=O)N[C@H](C(=O)N[C@@H](CC(N)=O)C(=O)N[C@H](C(=O)NCC(=O)N[C@@H](CO)C(=O)NCC(=O)N[C@H](C(=O)N1CCC[C@H]1C(N)=O)[C@@H](C)O)[C@@H](C)O)[C@@H](C)O)[C@@H](C)O [sCT]	115 ± 4	–	72 ± 5	–	49 ± 4	–	127 ± 13	–	150 ± 8	–
